Results: US11053204B2, “Pyrimidinyloxy benzene derivatives as herbicides” (FMC Corporation, priority 2015, dated 2021)

Experiments:
Assay type in all cases: in vivo
[1] = system: corn (Zea mays); experiment: Test C preemergence, plant response rating; settings: Preemergence
How it was run: (§1)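 Pre-emergence: seeds sown in loam soil–sand blend or silt loam and sprayed with test chemicals in a non-phytotoxic solvent mixture with surfactant. Post-emergence: plants 2 to 18 cm (1- to 4-leaf stage) in peat-based potting medium, same formulation. Greenhouse 13 to 15 d; visual rating 0 (no effect) to 100 (complete control) versus controls.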

[2] = system: blackgrass (Alopecurus myosuroides); experiment: Test C preemergence, plant response rating; settings: Preemergence
How it was run: as §1

[3] = system: velvetleaf (Abutilon theophrasti); experiment: Test C preemergence, plant response rating; settings: Preemergence
How it was run: as §1

[4] = system: waterhemp (common waterhemp, Amaranthus rudis); experiment: Test C preemergence, plant response rating; settings: Preemergence
How it was run: as §1

[5] = system: lambsquarters (Chenopodium album); experiment: Test C preemergence, plant response rating; settings: Preemergence
How it was run: as §1

[6] = system: soybean (Glycine max); experiment: Test C preemergence, plant response rating; settings: Preemergence
How it was run: as §1

[7] = system: oilseed rape (Brassica napus); experiment: Test C preemergence, plant response rating; settings: Preemergence
How it was run: as §1

[8] = system: ryegrass, Italian (Italian ryegrass, Lolium multiflorum); experiment: Test C preemergence, plant response rating; settings: Preemergence
How it was run: as §1

[9] = system: morningglory (Ipomoea coccinea); experiment: Test C preemergence, plant response rating; settings: Preemergence
How it was run: as §1

[10] = system: nutsedge, yellow (yellow nutsedge, Cyperus esculentus); experiment: Test C preemergence, plant response rating; settings: Preemergence
How it was run: as §1

[11] = system: ragweed (common ragweed, Ambrosia elatior); experiment: Test C preemergence, plant response rating; settings: Preemergence
How it was run: as §1

[12] = system: wheat (winter wheat, Triticum aestivum); experiment: Test C preemergence, plant response rating; settings: Preemergence
How it was run: as §1

[13] = system: foxtail, giant (giant foxtail, Setaria faberii); experiment: Test C preemergence, plant response rating; settings: Preemergence
How it was run: as §1

[14] = system: crabgrass, large (large crabgrass, Digitaria sanguinalis); experiment: Test C preemergence, plant response rating; settings: Preemergence
How it was run: as §1

[15] = system: galium (catchweed bedstraw, Galium aparine); experiment: Test A postemergence, visual injury rating; settings: 0 is no effect, 100 is complete control
How it was run: (§2)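 Greenhouse pot test, loam/sand soil. Formulation: non-phytotoxic solvent mix plus surfactant. Pre: directed spray onto soil after sowing. Post: plants at 1–2 leaf, 2–10 cm. Rated visually vs untreated controls at ~10 d, 0 (no effect) to 100 (complete control).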

[16] = system: blackgrass (Alopecurus myosuroides); experiment: Test A postemergence, visual injury rating; settings: 0 is no effect, 100 is complete control
How it was run: as §2

[17] = system: barnyardgrass (Echinochloa crus-galli); experiment: Test A postemergence, visual injury rating; settings: 0 is no effect, 100 is complete control
How it was run: as §2

[18] = 31 g ai/ha, 0 to 100 scale, approximately 10 days

O=C(CCCC(F)(F)F)c1c(Br)cccc1Oc1ncc(Cl)cn1 [Compound 77]
Plant response rating, Corn ([1]; 62 g ai/ha, scale of 0 to 100): 20 | Plant response rating, Corn ([1]; 125 g ai/ha, scale of 0 to 100): 35 | Plant response rating, Corn ([1]; 16 g ai/ha, scale 0 to 100): 0 | Plant response rating, Corn ([1]; 31 g ai/ha, scale 0 to 100): 15 | Plant response rating, Blackgrass ([2]; 62 g ai/ha, scale of 0 to 100): 90 | Plant response rating, Blackgrass ([2]; 125 g ai/ha, scale of 0 to 100): 100 | Plant response rating, Blackgrass ([2]; 16 g ai/ha, scale 0 to 100): 5 | Plant response rating, Blackgrass ([2]; 31 g ai/ha, scale 0 to 100): 15 | Plant response rating, Velvetleaf ([3]; 125 g ai/ha, scale of 0 to 100): 100 | Plant response rating, Velvetleaf ([3]; 16 g ai/ha, scale 0 to 100): 10 | Plant response rating, Velvetleaf ([3]; 31 g ai/ha, scale 0 to 100): 30 | Plant response rating, Velvetleaf ([3]; 62 g ai/ha, scale 0 to 100): 70 | Plant response rating, Waterhemp ([4]; 125 g ai/ha, scale of 0 to 100): 100 | Plant response rating, Waterhemp ([4]; 16 g ai/ha, scale 0 to 100): 95 | Plant response rating, Waterhemp ([4]; 31 g ai/ha, scale 0 to 100): 100 | Plant response rating, Waterhemp ([4]; 62 g ai/ha, scale 0 to 100): 100 | Plant response rating, Lambsquarters ([5]; 125 g ai/ha, scale of 0 to 100): 98 | Plant response rating, Lambsquarters ([5]; 16 g ai/ha, scale 0 to 100): 50 | Plant response rating, Lambsquarters ([5]; 31 g ai/ha, scale 0 to 100): 60 | Plant response rating, Lambsquarters ([5]; 62 g ai/ha, scale 0 to 100): 100 | Plant response rating, Soybean ([6]; 125 g ai/ha, scale of 0 to 100): 25 | Plant response rating, Soybean ([6]; 16 g ai/ha, scale 0 to 100): 5 | Plant response rating, Soybean ([6]; 31 g ai/ha, scale 0 to 100): 5 | Plant response rating, Soybean ([6]; 62 g ai/ha, scale 0 to 100): 15 | Plant response rating, Oilseed Rape ([7]; 125 g ai/ha, scale of 0 to 100): 100 | Plant response rating, Oilseed Rape ([7]; 16 g ai/ha, scale 0 to 100): 0 | Plant response rating, Oilseed Rape ([7]; 31 g ai/ha, scale 0 to 100): 55 | Plant response rating, Oilseed Rape ([7]; 62 g ai/ha, scale 0 to 100): 100 | Plant response rating, Ryegrass, Italian ([8]; 125 g ai/ha, scale of 0 to 100): 90 | Plant response rating, Ryegrass, Italian ([8]; 16 g ai/ha, scale 0 to 100): 0 | Plant response rating, Ryegrass, Italian ([8]; 31 g ai/ha, scale 0 to 100): 30 | Plant response rating, Ryegrass, Italian ([8]; 62 g ai/ha, scale 0 to 100): 35 | Plant response rating, Morningglory ([9]; 125 g ai/ha, scale of 0 to 100): 65 | Plant response rating, Morningglory ([9]; 16 g ai/ha, scale 0 to 100): 10 | Plant response rating, Morningglory ([9]; 31 g ai/ha, scale 0 to 100): 20 | Plant response rating, Morningglory ([9]; 62 g ai/ha, scale 0 to 100): 35 | Plant response rating, Nutsedge, Yellow ([10]; 125 g ai/ha, scale of 0 to 100): 30 | Plant response rating, Nutsedge, Yellow ([10]; 16 g ai/ha, scale 0 to 100): 0 | Plant response rating, Nutsedge, Yellow ([10]; 31 g ai/ha, scale 0 to 100): 0 | Plant response rating, Nutsedge, Yellow ([10]; 62 g ai/ha, scale 0 to 100): 0 | Plant response rating, Ragweed ([11]; 125 g ai/ha, scale of 0 to 100): 45 | Plant response rating, Ragweed ([11]; 16 g ai/ha, scale 0 to 100): 0 | Plant response rating, Ragweed ([11]; 31 g ai/ha, scale 0 to 100): 0 | Plant response rating, Ragweed ([11]; 62 g ai/ha, scale 0 to 100): 40 | Plant response rating, Wheat ([12]; 125 g ai/ha, scale of 0 to 100): 0 | Plant response rating, Wheat ([12]; 16 g ai/ha, scale 0 to 100): 0 | Plant response rating, Wheat ([12]; 31 g ai/ha, scale 0 to 100): 0 | Plant response rating, Wheat ([12]; 62 g ai/ha, scale 0 to 100): 0 | Plant response rating, Foxtail, Giant ([13]; 62 g ai/ha, scale of 0 to 100): 100 | Plant response rating, Foxtail, Giant ([13]; 125 g ai/ha, scale of 0 to 100): 100 | Plant response rating, Foxtail, Giant ([13]; 16 g ai/ha, scale 0 to 100): 95 | Plant response rating, Foxtail, Giant ([13]; 31 g ai/ha, scale 0 to 100): 100 | Plant response rating, Crabgrass, Large ([14]; 62 g ai/ha, scale of 0 to 100): 100 | Plant response rating, Crabgrass, Large ([14]; 125 g ai/ha, scale of 0 to 100): 100 | Plant response rating, Crabgrass, Large ([14]; 16 g ai/ha, scale 0 to 100): 98 | Plant response rating, Crabgrass, Large ([14]; 31 g ai/ha, scale 0 to 100): 100 | Galium plant response rating [15, 18]: 90 | Galium plant response rating (0 to 100 scale) ([15]; 125 g ai/ha): 100 | Blackgrass plant response rating [16, 18]: 20 | Blackgrass plant response rating (0 to 100 scale) ([16]; 125 g ai/ha): 50 | Barnyardgrass plant response rating [17, 18]: 30 | Barnyardgrass plant response rating (0 to 100 scale) ([17]; 125 g ai/ha): 90
